# Reference: patent US8790874B2, “Device for investigation of a flow conduit” (priority 2008, dated 2014)
# Assays:
# Assay type in all cases: cell-based
# mesenteric arteries [1] = assay: PE dose response of mesenteric arteries measured using the device; settings: 3.0 μM PE applied to exterior surface, n=5
# Source text: An example process of loading a flow conduit, in this case an artery, into this example embodiment of the device is now described. The device was initially flushed with a Bovine serum albumin (BSA) solution to prevent any unwanted adhesion of arteries to the walls of the main channel or culture chamber. […] As an alternative to the reversible fixation of the artery used here, an irreversible fixation method may be used, as discussed above.
# Upon fixation (e.g., using a reversible fixation method), the lumen of the artery was perfused by operating a syringe pump, connected to an inlet of the culture channel, in the perfusion mode. By connecting the inlet and outlet of the culture channel to different hydrostatic pressure levels, a flow through the culture chamber was achieved while maintain a defined transmural pressure difference across the wall of the artery. A flow through the culture chamber was achieved while maintaining a defined transmural pressure difference (i.e., P1−P3 in FIG. 1) by superfusing the culture chamber with a second syringe pump that operates in the perfusion mode, connected at the inlet of the culture channel. The outlet of the culture channel was thus led to a reduced hydrostatic pressure level. […]
# mesenteric arteries [2] = assay: PE dose response of mesenteric arteries, conventional pipette cannulation setup; settings: 3.0 μM PE applied to exterior surface, n=5
# Source text: The device may be used to investigate responses of biological flow conduits. […] In this example, PE was applied to the exterior surface of the flow conduit, and the dose of PE was changed in a stepwise fashion.
# mouse mesenteric artery = assay: FURA-2 Ca2+ ratiometric measurements on a mesenteric artery fixed on the device; settings: stimulation with 3.0 μM PE; return to baseline following washout
# Source text: The smooth muscle cells in the artery are stained.
# mouse mesenteric vessel = assay: Constriction of a mesenteric vessel in the device, single dose of PE; settings: 3.0 μM PE, representative tracing
# Description: In another example, the device was used to investigate a mesenteric vessel. […] In this example, a mouse mesenteric vessel was used, and a single does of PE was administered. The PE was applied to the exterior surface of the flow conduit. a) is a representative tracing of a mesenteric vessel's response to 3.0 μM PE, with a sustained constriction of 41.8%, measured in freshly isolated arteries that were immediately subjected to the stimulation with PE. b) is a representative tracing of a single mesenteric vessel kept in culture for 24 hours on the device prior to testing the response to PE, showing a sustained constriction of 41.4% to 3.0 μM PE.
compound,measurement,setting,value
"CNC[C@H](O)c1cccc(O)c1 [PE, phenylephrine]",maximal outer diameter constriction,mesenteric arteries [1],42.2+/−3.8%
same,maximal outer diameter constriction,mesenteric arteries [2],44.5+/−2.5%
same,FURA-2 ratio (F340nm/F380nm),mouse mesenteric artery,increase in FURA-2 ratio
same,sustained constriction,"mouse mesenteric vessel; freshly isolated arteries, immediately stimulated",41.8%
same,sustained constriction,mouse mesenteric vessel; vessel kept in culture for 24 hours on the device before testing,41.4%
